According to patent publication US9708368B2, “Linear peptide antibiotics” (priority 2012, dated 2017):
≈ marks a conversion by molar mass, not a printed value. Numbered stars: 1 amine (or outer) side, 2 acyl side, 3 side chain; on linkers, the order of the positions; unused ones are H or OH. Square brackets hold non-standard residues; d marks the D form. Peptide text beside a SMILES is read from it. * marks the point of attachment. ξ: configuration not given here. boroAla((+)-pinanediol) = C[C@H](N*)B1O[C@@H]2C[C@@H]3C[C@@H](C3(C)C)[C@]2(C)O1; Biphenylcarbonyl(4'-Bu) = CCCCc1ccc(-c2ccc(C(=O)*)cc2)cc1; X11 = CC[C@H](N*)B1OC2C[C@@H]3C[C@@H](C3(C)C)[C@]2(C)O1; X1 = C[C@H](N*)B1OC2C[C@@H]3C[C@@H](C3(C)C)[C@]2(C)O1; ξPro(4S-NH2) = O=C(C1C[C@H](N[*:3])CN1[*:1])[*:2]; ξ3Amino2oxobutanoyl = CC(N[*:1])C(=O)C(=O)[*:2]; X16 = CC(C)(C)c1ccc(-c2ccc(C(=O)*)cc2)cc1; X4 = CCCCc1ccc(-c2c[nH]c(C(=O)*)c2)cc1; Dopa = N[C@@H](Cc1ccc(O)c(O)c1)C(=O)O; X13 = CCCCN1CCC(c2ccc(C(=O)*)cc2)CC1; Hpg = N[C@H](C(=O)O)c1ccc(O)cc1; Lauroyl = CCCCCCCCCCCC(=O)*; Dab = NCC[C@H](N)C(=O)O; Abu = CC[C@H](N)C(=O)O; Dap = NC[C@H](N)C(=O)O; Ac3c = NC1(C(=O)O)CC1; βAla = NCCC(=O)O

Assays:
E. coli SPase = E. coli SPase (Escherichia coli, UniProt P00803); test: Biochemical SPase activity assay (fluorogenic peptide substrate), E. coli enzyme
[1] = test system: Escherichia coli strain MC4100 IMP-4213, which harbors an LptD mutation; conditions: Method B; E. coli MC4100 IMP-4213 (LptD mutation); 35° C., 22 hours
Method in brief: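 Two-fold serial dilutions of compound inoculated at final OD600 0.0005, incubated static at 35 °C for 22 h, and growth read visually.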

S. aureus SPase = S. aureus SPase (Staphylococcus aureus, UniProt P0A070); test: biochemical
[2] = test system: methicillin resistant Staphylococcus aureus (MRSA) strain USA300 (NRS384); conditions: Method B, 35° C., 22 hours

| SMILES | IC50 (E. coli SPase) | MIC (μg/mL) E. coli [1] | IC50 (S. aureus SPase) | MIC (μg/mL) S. aureus [2] |
| --- | --- | --- | --- | --- |
| CCCCc1ccc(-c2ccc(C(=O)N[C@@H](CCCCN)C(=O)NC3(C(=O)N[C@@H](C)C(=O)N[C@@H](CCCCN)C(=O)N[C@@H](C)B4OC5C[C@@H]6C[C@@H](C6(C)C)[C@]5(C)O4)CC3)cc2)cc1 (stereo partly drawn) [Compound 137] ({Biphenylcarbonyl(4'-Bu)}-K[Ac3c]AK-X1) | 1200 nM | 23 µg/mL (≈ 26.4 µM) | 26000 nM | 16 µg/mL (≈ 18.4 µM) |
| CCCCc1ccc(-c2ccc(C(=O)NCCC(=O)N[C@@H](CCCCN)C(=O)N[C@H](C(=O)N[C@@H](C)C(=O)N[C@@H](CCCCN)C(=O)N[C@@H](C)B3OC4C[C@@H]5C[C@@H](C5(C)C)[C@]4(C)O3)[C@@H](C)O)cc2)cc1 (stereo partly drawn) [Compound 193] ({Biphenylcarbonyl(4'-Bu)-βAla}-KTAK-X1) | 15 nM | 5 µg/mL (≈ 5.21 µM) | 3 nM | 0.16 µg/mL (≈ 0.167 µM) |
| CCCCc1ccc(-c2ccc(C(=O)NCCC(=O)N[C@@H](CCCCN)C(=O)N[C@H](C(=O)N[C@@H](CC)C(=O)N[C@@H](CC(N)=O)C(=O)N[C@@H](C)B3OC4C[C@@H]5C[C@@H](C5(C)C)[C@]4(C)O3)[C@@H](C)O)cc2)cc1 (stereo partly drawn) [Compound 206] ({Biphenylcarbonyl(4'-Bu)-βAla}-KT[Abu]N-X1) | 6.3 nM | 2 µg/mL (≈ 2.09 µM) | 5.2 nM | 0.5 µg/mL (≈ 0.521 µM) |
| CCCCc1ccc(-c2ccc(C(=O)N[C@@H](CCN)C(=O)N[C@@H](Cc3ccc(O)c(O)c3)C(=O)N[C@@H](C)C(=O)N[C@@H](Cc3ccc(O)c(O)c3)C(=O)N[C@@H](C)B3OC4C[C@@H]5C[C@@H](C5(C)C)[C@]4(C)O3)cc2)cc1 (stereo partly drawn) [Compound 189] ({Biphenylcarbonyl(4'-Bu)}-[Dab][Dopa]A[Dopa]-X1) | 430 nM | 64 µg/mL (≈ 64.7 µM) | 7700 nM | >64 µg/mL |
| CCCCc1ccc(-c2ccc(C(=O)N[C@@H](CN)C(=O)N[C@@H](CN)C(=O)N[C@@H](C)C(=O)N[C@@H](CC(C)C)C(=O)N[C@@H](C)B3OC4C[C@@H]5C[C@@H](C5(C)C)[C@]4(C)O3)cc2)cc1 (stereo partly drawn) [Compound 170] ({Biphenylcarbonyl(4'-Bu)}-[Dap][Dap]AL-X1) | 10 nM | 0.4 µg/mL (≈ 0.49 µM) | 530 nM | 2 µg/mL (≈ 2.45 µM) |
| CCCCc1ccc(-c2c[nH]c(C(=O)N[C@@H](CCN)C(=O)N[C@H](C(=O)N[C@@H](C)C(=O)N[C@@H](CCCCN)C(=O)N[C@@H](C)B3O[C@@H]4C[C@@H]5C[C@@H](C5(C)C)[C@]4(C)O3)[C@@H](C)O)c2)cc1 [Compound 247] (X4-[Dab]TAK-{boroAla((+)-pinanediol)}) | 17 nM | 0.5 µg/mL (≈ 0.589 µM) | 110 nM | 0.5 µg/mL (≈ 0.589 µM) |
| CCCCc1ccc(-c2ccc(C(=O)NCCC(=O)N[C@@H](CCCCN)C(=O)N[C@H](C(=O)N[C@@H](C)C(=O)N[C@@H](Cc3c[nH]cn3)C(=O)N[C@@H](C)B3OC4C[C@@H]5C[C@@H](C5(C)C)[C@]4(C)O3)[C@@H](C)O)cc2)cc1 (stereo partly drawn) [Compound 196] ({Biphenylcarbonyl(4'-Bu)-βAla}-KTAH-X1) | 8.8 nM | 2.5 µg/mL (≈ 2.58 µM) | 5.7 nM | 0.66 µg/mL (≈ 0.682 µM) |
| CCCCc1ccc(-c2ccc(C(=O)N[C@@H](CN)C(=O)N[C@@H](CCCCN)C(=O)N[C@@H](C)C(=O)N[C@@H](CCCCN)C(=O)N[C@@H](C)B3O[C@@H]4C[C@@H]5C[C@@H](C5(C)C)[C@]4(C)O3)cc2)cc1 [Compound 184] ({Biphenylcarbonyl(4'-Bu)}-[Dap]KAK-{boroAla((+)-pinanediol)}) | 5.9 nM | 0.13 µg/mL (≈ 0.149 µM) | 300 nM | 0.25 µg/mL (≈ 0.286 µM) |
| C[C@H](NC(=O)[C@H](CCCCN)NC(=O)[C@H](C)NC(=O)[C@@H](NC(=O)[C@H](CCN)NC(=O)c1ccc(-c2ccccc2C(F)(F)F)cc1)[C@@H](C)O)B1OC2C[C@@H]3C[C@@H](C3(C)C)[C@]2(C)O1 (stereo partly drawn) [Compound 236] | 28 nM | 8 µg/mL (≈ 9.18 µM) | 130 nM | 2 µg/mL (≈ 2.29 µM) |
| CCCCc1ccc(-c2ccc(C(=O)N3C[C@@H](N)CC3C(=O)N[C@H](C(=O)N[C@@H](C)C(=O)N[C@@H](CC(N)=O)C(=O)N[C@@H](C)B3OC4C[C@@H]5C[C@@H](C5(C)C)[C@]4(C)O3)[C@@H](C)O)cc2)cc1 (stereo partly drawn) [Compound 139] ({Biphenylcarbonyl(4'-Bu)}-[ξPro(4S-NH2)]TAN-X1) | 3.4 nM | 2 µg/mL (≈ 2.33 µM) | 8.5 nM | 1 µg/mL (≈ 1.17 µM) |
| CCCCc1ccc(-c2ccc(C(=O)NCCC(=O)N[C@@H](CCCCN)C(=O)N[C@H](C(=O)N[C@@H](C)C(=O)NC3(C(=O)N[C@@H](C)B4OC5C[C@@H]6C[C@@H](C6(C)C)[C@]5(C)O4)CC3)[C@@H](C)O)cc2)cc1 (stereo partly drawn) [Compound 219] ({Biphenylcarbonyl(4'-Bu)-βAla}-KTA[Ac3c]-X1) | 560 nM | 64 µg/mL (≈ 70 µM) | 46 nM | 5 µg/mL (≈ 5.47 µM) |
| C[C@H](NC(=O)[C@H](CCCCN)NC(=O)[C@H](C)NC(=O)[C@@H](NC(=O)[C@H](CCN)NC(=O)c1ccc(-c2ccc(C(C)(C)C)cc2)cc1)[C@@H](C)O)B1O[C@@H]2C[C@@H]3C[C@@H](C3(C)C)[C@]2(C)O1 [Compound 231] (X16-[Dab]TAK-{boroAla((+)-pinanediol)}) | 4.5 nM | 0.5 µg/mL (≈ 0.581 µM) | 95 nM | 0.5 µg/mL (≈ 0.581 µM) |
| CCCCc1ccc(-c2ccc(C(=O)N[C@@H](CCCNC(=N)N)C(=O)N[C@H](C(=O)N[C@@H](C)C(=O)N[C@@H](CCCCN)C(=O)N[C@@H](C)B3O[C@@H]4C[C@@H]5C[C@@H](C5(C)C)[C@]4(C)O3)[C@@H](C)O)cc2)cc1 [Compound 174] ({Biphenylcarbonyl(4'-Bu)}-RTAK-{boroAla((+)-pinanediol)}) | 59 nM | 0.5 µg/mL (≈ 0.546 µM) | 130 nM | 0.25 µg/mL (≈ 0.273 µM) |
| CCCCc1ccc(-c2ccc(C(=O)N[C@@H](CN)C(=O)N[C@@H](CCC(=O)N[C@H](C)C(=O)O)C(=O)N[C@@H](C)C(=O)N[C@@H](CCCCN)C(=O)N[C@@H](C)B3O[C@@H]4C[C@@H]5C[C@@H](C5(C)C)[C@]4(C)O3)cc2)cc1 [Compound 260] ({Biphenylcarbonyl(4'-Bu)}-[Dap]E(dA)AK-{boroAla((+)-pinanediol)}) | 5.6 nM | 1 µg/mL (≈ 1.06 µM) | 83 nM | 4 µg/mL (≈ 4.23 µM) |
| CCCCc1ccc(-c2ccc(C(=O)N[C@@H](CCCCN)C(=O)N[C@@H](CCC(=O)OCC)C(=O)N[C@@H](C)C(=O)N[C@@H](CCCCN)C(=O)N[C@@H](C)B3O[C@@H]4C[C@@H]5C[C@@H](C5(C)C)[C@]4(C)O3)cc2)cc1 [Compound 261] ({Biphenylcarbonyl(4'-Bu)}-KE(OEt)AK-{boroAla((+)-pinanediol)}) | 41 nM | 0.79 µg/mL (≈ 0.837 µM) | 280 nM | 0.71 µg/mL (≈ 0.752 µM) |
| CCCCN1CCC(c2ccc(C(=O)N[C@@H](CCN)C(=O)N[C@H](C(=O)N[C@@H](C)C(=O)N[C@@H](CCCCN)C(=O)N[C@@H](C)B3O[C@@H]4C[C@@H]5C[C@@H](C5(C)C)[C@]4(C)O3)[C@@H](C)O)cc2)CC1 [Compound 244] (X13-[Dab]TAK-{boroAla((+)-pinanediol)}) | 350 nM | 64 µg/mL (≈ 73.8 µM) | 1100 nM | 45 µg/mL (≈ 51.9 µM) |
| CCCCc1ccc(-c2ccc(C(=O)NCCC(=O)N[C@@H](CCCCN)C(=O)N[C@H](C(=O)N[C@@H](C)C(=O)N[C@@H](CC(N)=O)C(=O)N[C@@H](CC)B3OC4C[C@@H]5C[C@@H](C5(C)C)[C@]4(C)O3)[C@@H](C)O)cc2)cc1 (stereo partly drawn) [Compound 203] ({Biphenylcarbonyl(4'-Bu)-βAla}-KTAN-X11) | 130 nM | 32 µg/mL (≈ 33.4 µM) | 21 nM | 1.4 µg/mL (≈ 1.46 µM) |
| CCCCCCCCCCCC(=O)N[C@@H](CCCCN)C(=O)N[C@H](C(=O)N[C@@H](C)C(=O)N[C@@H](CCCCN)C(=O)N[C@@H](C)B1OC2C[C@@H]3C[C@@H](C3(C)C)[C@]2(C)O1)[C@@H](C)O (stereo partly drawn) [Compound 141] (Lauroyl-KTAK-X1) | 33 nM | 5.7 µg/mL (≈ 6.83 µM) | 23 nM | 0.79 µg/mL (≈ 0.947 µM) |
| CCCCc1ccc(-c2ccc(C(=O)NCCC(=O)N[C@@H](CCCCN)C(=O)N[C@H](C(=O)N[C@@H](C)C(=O)N[C@@H](CC(N)=O)C(=O)N[C@@H](C)B3OC4C[C@@H]5C[C@@H](C5(C)C)[C@]4(C)O3)c3ccc(O)cc3)cc2)cc1 (stereo partly drawn) [Compound 209] ({Biphenylcarbonyl(4'-Bu)-βAla}-K[Hpg]AN-X1) | 12 nM | 2.5 µg/mL (≈ 2.52 µM) | 15 nM | 1 µg/mL (≈ 1.01 µM) |
| CCCCc1ccc(-c2ccc(C(=O)N[C@@H](CCCCN)C(=O)N[C@H](C(=O)N[C@@H](CC)C(=O)N[C@@H](CC(N)=O)C(=O)N[C@@H](C)B3O[C@@H]4C[C@@H]5C[C@@H](C5(C)C)[C@]4(C)O3)[C@@H](C)O)cc2)cc1 [Compound 144] ({Biphenylcarbonyl(4'-Bu)}-KT[Abu]N-{boroAla((+)-pinanediol)}) | 18 nM | 0.25 µg/mL (≈ 0.282 µM) | 36 nM | 0.25 µg/mL (≈ 0.282 µM) |
| CCCCc1ccc(-c2ccc(C(=O)NCCC(=O)N[C@@H](CCCCN)C(=O)N[C@H](C(=O)N[C@@H](C)C(=O)N[C@@H](CC(N)=O)C(=O)NC(C)C(=O)C(=O)NC)[C@@H](C)O)cc2)cc1 (stereo partly drawn) [Compound 252] ({Biphenylcarbonyl(4'-Bu)-βAla}-KTAN[ξ3Amino2oxobutanoyl]-NHMe) | 3000 nM | >64 µg/mL | 8.7 nM | 5 µg/mL (≈ 5.87 µM) |
